# Assay results from patent publication US6384045B1, “Tricyclic and tetracyclic pyrones” (Kansas State University Research Foundation, priority 1997, dated 2002).
# “Also recorded” adds a separate entry of the source.
# What was measured:
# [1] = biological target: acetylcholinesterase (AChE) (UniProt O42275); type: biochemical, electric eel; fetal bovine serum; conditions: read-out: AChE inhibition constant Ki ± std. error; 30° C., pH 8.0
# Description: Acetylcholinesterase Assay and Inhibition Kinetics: Tricyclic pyrones of this invention were tested for inhibition of AChE. […] Reactions were carried out at 30° C. in 0.1 M sodium phosphate buffer at pH 8.0 in the presence of […] and 3.3×10^−4 M 3-carboxy-4-nitrophenyl disulfide. Aliquots of incubating mixtures containing enzyme alone, or enzyme in the presence of each carbamate, were withdrawn at selected time intervals and assayed for enzyme activity in order to obtain kinetic data. From the kinetic data, inhibition and bimolecular rate constants were calculated by the equation: [formula]
# in which kapp is the pseudo-first-order rate constant.
# [2] = test system: T1, liver and intestinal microsomal ACAT; test: Inhibition of liver and intestinal microsomal ACAT activity; type: biochemical
# T1 construct: other: 100 μM; other: 44 nM; other: 50 μM
# Description: . Microsomes were prepared from liver and intestinal mucosal scrapings by sequential centrifugation and in vitro ACAT activity assays were done according to the method of Billheimer (Billheimer, J. T. (1985), “Cholesterol acyltransferase,” In Methods in Enzymology 111:286-293). Briefly, 100 μg microsomal protein, 22 μg BSA, and 52 nmol cholesterol and the synthesized drug in 5 μL DMSO were preincubated for 30 minutes at 37° C. in a phosphate buffer (200 μL total volume). After 30 minutes, 1 nmol [^14C]oleoyl-CoA was added as substrate and incubated for an additional 20 minutes. The reaction was stopped with the addition of 1 mL ethanol and lipids were extracted with hexane. Cholesteryl [^14C]oleate formation was quantified by thin-layer chromatography and data are expressed as percent inhibition of ACAT activity (pmol/μg protein per minute) compared to a control sample incubated with no drug. All samples were run in duplicate. […]
# [3] = test system: L1210 lymphoblastic leukemia cells; test: Inhibition of L1210 tumor cell growth in vitro (Coulter counter); type: cell-based, Murine; conditions: for inhibition of L1210 cell growth (% reduction of control cell numbers): 50 μM, 3 and 4 days in culture; for reduction of L1210 cell numbers vs control: 0.78 μM
# Description: Cells were plated at an initial density of 1×10^4 cells/0.5 ml/well in RPMI 1640 medium, containing 7.5% fortified bovine calf serum, and grown at 37° C. for 4 days in a humidified incubator in 5% CO2 in air. Cells were incubated in the presence or absence (^•, control) of 50 μM 3A (▪), 2D & 2E (□),3D & 3E (▴), 2B & 2C (Δ) 2A (♦), 3B & 3C (⋄), or 10 μM CPT (∘) and their density was monitored in triplicate every 24 h using a Coulter counter. Cells numbers are plotted on a logarithmic scale.
# (§1) All solutions of tricyclic pyrone analogs were dissolved and diluted in 100% ethanol (ETOH), whereas CPT (Sigma Chemical Co., St. Louis, Mo.) solutions were prepared in 100% dimethyl sulfoxide (DMSO). Murine L1210 lymphoblastic leukemia cells, obtained from the American Type Culture Collection (Rockville, Md.), were maintained in continuous exponential growth by twice-a-week passage in RPMI 1640 medium supplemented with 7.5% fortified bovine calf serum (HyClone Laboratories, Inc., Logan, Utah). The cultures were incubated at 37° C. in a humidified atmosphere containing 5% CO2. All drugs were supplemented to the culture medium in 1- or 2 μl aliquots. The concentration of vehicle in the final incubation volume never exceeded 0.2-0.4%. […] Control cells incubated in the absence of drugs were similarly treated with vehicle only and, in every experiment, all incubates received the same volume of solvent.
# For tumor cell growth, L1210 cells were resuspended in fresh serum-containing RPMI 1640 medium, plated at an initial density of 1×10^4 cells/0.5 ml, and incubated in 48-well Costar cell culture plates (Costar, Cambridge, Mass.). Cells were grown for 4 days in the presence or absence of drugs and their density was monitored every 24 h using a Coulter counter (Coulter Electronics, Ltd., Luton Beds, England). Data of all in vitro experiments were analyzed using Student's t-test with the level of significance set at P<0.05.
# [4] = test system: L1210 lymphoblastic leukemia cells; test: Inhibition of DNA synthesis (3H-thymidine incorporation) in L1210 cells in vitro; type: cell-based, Murine
# Description: FIG. 1 illustrates a comparison of the effects of four new tricyclic pyrone derivatives and CPT on DNA synthesis in L1210 cells in vitro. About 2.53×10^6 cells suspended in 0.5 ml of RPMI 1640 medium were incubated at 37° C. for 90 minutes in the presence or absence (control) of the indicated concentrations of drugs. The cells were then pulse-labeled for an additional 30 minutes to determine the rate of ^3H-thymidine incorporation into DNA. DNA synthesis in vehicle-treated control cells was 43,956±4,569 cpm (100±11%). The blank value (1,241±99 cpm) for cells pulse-labeled for 0 minutes with 1 μCi of ^3H-thymidine has been subtracted from the results. Bars: means±SD (n=3).
# as §1
# For DNA synthesis, L1210 cells were resuspended in fresh serum-free RPMI 1640 medium at a density of about 2.5×10^6 cells/0.5 ml. The cells were incubated at 37° C. for 90 min in the presence or absence of drugs and then pulse-labeled for an additional 30 min with 1 μCi of [methyl-^3H]thymidine (51 Ci/mmol; Amersham Corp., Arlington Heights, Ill.). The incubations were terminated by the addition of 0.5 ml of 10% trichloroacetic acid (TCA). After holding on ice for 15 min, the acid-insoluble material was recovered over Whatman GF/A glass microfibre filters and washed thrice with 2 ml of 5% TCA and twice with 2 ml of 100% EtOH. After drying the filters, the radioactivity bound to the acid-precipitable material was determined by liquid scintillation counting in 10 ml of Bio-Safe NA (Research Products International Corp., Mount Prospect, Ill.).
# [5] = 50 μM, 90 min + 30 min pulse, 50 µM
# Chain of acetylcholinesterase (AChE) (O42275 whole entry): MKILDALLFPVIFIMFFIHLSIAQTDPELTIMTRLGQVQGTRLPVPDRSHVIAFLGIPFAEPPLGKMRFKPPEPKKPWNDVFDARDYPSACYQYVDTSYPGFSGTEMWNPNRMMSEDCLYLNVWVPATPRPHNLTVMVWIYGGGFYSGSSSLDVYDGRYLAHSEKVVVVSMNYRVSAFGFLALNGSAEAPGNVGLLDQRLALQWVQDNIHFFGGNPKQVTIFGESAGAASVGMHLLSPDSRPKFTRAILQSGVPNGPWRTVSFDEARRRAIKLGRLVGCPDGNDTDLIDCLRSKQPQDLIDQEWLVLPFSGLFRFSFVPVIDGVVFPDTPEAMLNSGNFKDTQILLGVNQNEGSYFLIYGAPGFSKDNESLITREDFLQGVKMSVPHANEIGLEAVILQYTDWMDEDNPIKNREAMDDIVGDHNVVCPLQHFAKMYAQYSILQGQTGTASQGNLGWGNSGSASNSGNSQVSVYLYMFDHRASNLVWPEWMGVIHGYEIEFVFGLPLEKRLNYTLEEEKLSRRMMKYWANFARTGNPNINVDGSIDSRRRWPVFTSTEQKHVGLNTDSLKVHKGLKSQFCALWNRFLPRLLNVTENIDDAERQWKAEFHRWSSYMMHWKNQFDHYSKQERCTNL
Compound,Ki [1],% Inhibition of ACAT ([2]; 50 μM),% Inhibition of ACAT ([2]; 100 μM),further results
"CC12Oc3cc(-c4cccnc4)oc(=O)c3C=C1CCCC2O (stereo not drawn) [Compound 2B, cis-3-(3-pyridyl)-5a-methyl-6-hydroxy-1H-5a,6,7,8,9-pentahydro-1-oxopyrano[4,3-b][1]benzopyran]",8 ± 2.3 µM,,,
"O=c1oc(-c2cccnc2)cc2c1[C@@H](O)[C@@]1(O)CCCC[C@@H]1O2 (relative stereo) [Compound 38B, (5aS*,9aR*,10R*)-9a,10-Dihydroxy-3-(3-pyridyl)-1H-5a,6,7,8,9,9a,10-heptahydro-1-oxopyrano[4,3-b][1]benzopyran]",,9.7%,11.4%,
"CC12Oc3cc(-c4cccnc4)oc(=O)c3C=C1CCCC2OC=O (stereo not drawn) [Compound 2D, cis-3-(3-pyridyl)-5a-methyl-6-formyloxy-1H-5a,6,7,8,9-pentahydro-1-oxopyrano[4,3-b][1]benzopyran]",26 ± 2.3 µM,,,
"O=C(O)Cc1cc2c(c(=O)o1)C=C1CCCCC1O2 (stereo not drawn) [Compound 32, 3-(Carboxymethyl)-1H-5a,6,7,8,9-pentahydro-1-oxopyrano[4,3-b][1]benzopyran]",,10.3%,7.9%,
"Cc1cc2c(c(=O)o1)C=C1CCC[C@H](O)[C@@]1(C)O2 [Compound 1B, cis-3-5a-dimethyl-6-hydroxy-1H-5a,6,7,8,9-pentahydro-1-oxopyrano[4,3-b][1]benzopyran]",20 ± 5.8 µM,,,
"O=C(CCCCC(=O)Cc1cc2c(c(=O)o1)C=C1CCCCC1O2)Cc1cc2c(c(=O)o1)C=C1CCCCC1O2 (stereo not drawn) [Compound 33, 1,8-Di-{3-[1H-5a,6,7,8,9-pentahydro-1-oxopyrano[4,3-b][I]benzopyranyl]}-2,7-octanedione]",,57%,76%,
"C=C(C)[C@H]1CCC2=Cc3c(cc(-c4ccc(OC)c(OC)c4)oc3=O)OC2C1 (stereo partly drawn) [Compound 30, (5aS,7S)-7-Isopropenyl-3-(3,4-dimethoxyphenyl)-1H-5a,6,7,8,9-pentahydro-1-oxopyrano[4,3-b][1]benzopyran]",,13.3%,21.9%,
"CC12Oc3cc(-c4cccnc4)oc(=O)c3C=C1CCCC2OC=O (stereo not drawn) [2D & 2E, cis- and trans-3-(3-pyridyl)-5a-methyl-6-formyloxy-1H-5a,6,7,8,9-pentahydro-1-oxopyrano[4,3-b]benzopyran]",,,,"inhibition of L1210 cell growth (% reduction of control cell numbers) [3]: cannot inhibit the growth; inhibition of DNA synthesis in L1210 cells ([4]; 25 μM, 90 min + 30 min pulse): no significant effects; inhibition of DNA synthesis in L1210 cells [4, 5]: 49%"
"Cc1cc2c(c(=O)o1)C=C1CCCC(OC=O)C1(C)O2 (stereo not drawn) [Compound 1D, cis-3-5-a-dimethyl-6-formyloxy-1H-5a,6,7,8,9-pentahydro-1-oxopyrano[4,3-b][1]benzopyran]",5 ± 1.7 µM,,,IC50 ([2]; using literature IC50 of pyripyropene as standard): 52 µM
"CC[C@@]1(O)C(=O)OCc2c1cc1n(c2=O)Cc2cc3ccccc3nc2-1 [CPT, 20(S)-camptothecin (CPT), reference compound]",,,,"reduction of L1210 cell numbers vs control ([3]; 1 day): 46%; reduction of L1210 cell numbers vs control ([3]; 2 days): 85%; reduction of L1210 cell numbers vs control ([3]; 3 days): 97%; reduction of L1210 cell numbers vs control ([3]; 4 days): 99%; IC50 ([4]; Mus musculus, L1210, 2 h, read-out: concentration that inhibits DNA synthesis by 50% (IC50)): ~0.65 µM"
"Cc1cc2c(c(=O)o1)C=C1CCCCC1O2 (stereo not drawn) [Compound 1A, 3-methyl-1H-5a,6,7,8,9-pentahydro-1-oxopyrano[4,3-b]-[i]benzopyran]",7 ± 1.2 µM,,,"inhibition at 50 µM ([4]; Mus musculus, L1210, 50 μM, 90 min + 30 min pulse): 17 to 32%"
"CCCCCCCC[C@H](SCCCCCC)C(=O)Nc1c(SC)cc(C)nc1SC [CP-113,818, reference compound]",,,,% Inhibition of ACAT ([2]; 44 nM): 42.5%
"COc1ccc(-c2cc3c(c(=O)o2)C=C2CCCC(O)C2(C)O3)cc1OC (stereo not drawn) [Compound 3B, cis-3-(3,4-dimethoxyphenyl)-5a-methyl-6-hydroxy-1H-5a,6,7,8,9-pentahydro-1-oxopyrano[4,3-b][1]benzopyran]",4 ± 0.6 µM,,,
"C=C(C)[C@H]1CCC2=Cc3c(cc(-c4cccnc4)oc3=O)O[C@H]2C1 [Compound 29, (5aS,7S)-7-Isopropenyl-3-(3-pyridyl)-1H-5a,6,7,8,9-pentahydro-1-oxopyrano[4,3-b][1]benzopyran]",,21%,39%,
"Cc1cc2ncc3c(c2c(=O)o1)CCCC3 [Compound 26, 1H-3-methyl-7,8,9,10-tetrahydropyrano[4,3-c]isoquinolin-1-one]",,2.7%,13.7%,
"O=c1occc2nc3c(cc12)CCCC3 [Compound 24, 1H-6,7,8,9-tetrahydro-1-oxopyrano[4,3-b]quinoline]",,1.9%,3.3%,
"C=C(C)[C@H]1CCC2=Cc3c(cc(C)oc3=O)O[C@H]2C1 [Compound 28, (5aS,7S)-7-Isopropenyl-3-methyl-1H-5a,6,7,8,9-pentahydro-1-oxopyrano[4,3-b][1]benzopyran]",,17%,30%,
tri(deacetyl)pyripyropene A [Compound 22],,,,"inhibition of DNA synthesis in L1210 cells ([4]; 25 μM, 90 min + 30 min pulse): no significant effects; inhibition of DNA synthesis in L1210 cells [4, 5]: no effect; also recorded: ineffective; also recorded: fail to inhibit DNA synthesis"
"CCCCC(=O)OCC(C)[C@H]1CCC2C(O)c3c(cc(-c4ccc(OC)c(OC)c4)oc3=O)O[C@H]2C1 (stereo partly drawn) [Compound 37, (5aS,7S)-7-[2-(1-Pentanoyloxypropyl)]-10-hydroxy-3-(3,4-dimethoxyphenyl)-1H-5a,6,7,8,9,9a,10-heptahydro-1-oxopyrano[4,3-b][1]benzopyran]",,36.8%,52.4%,
"CC12Oc3cc(-c4cccnc4)oc(=O)c3C=C1CCCC2O (stereo not drawn) [2B & 2C, cis- and trans-3-(3-pyridyl)-5a-methyl-6-hydroxy-1H-5a,6,7,8,9-pentahydro-1-oxopyrano[4,3-b]benzopyran]",,,,inhibition of L1210 cell growth (% reduction of control cell numbers) [3]: cannot inhibit the growth
"COc1ccc(-c2cc3c(c(=O)o2)C=C2CCCC(OC=O)C2(C)O3)cc1OC (stereo not drawn) [Compound 3D, cis-3-(3,4-Dimethoxyphenyl)-6-formyloxy-5a-methyl-1H-5a,6,7,8,9-pentahydro-1-oxopyrano[4,3-B][1]benzopyran]",15 ± 5.8 µM,,,
